# Measurements as given in paper PMC6308302, “Identification of Pharmacokinetic Markers for Guanxin Danshen Drop Pills in Rats by Combination of Pharmacokinetics, Systems Pharmacology, and Pharmacodynamic Assays” (Frontiers in Pharmacology, 2018).
# Entries after “also recorded” stand apart in the source; their conditions may differ. Marks after values point to notes of the source that are not given here.
# Experiments:
# [1] = Aqueous solubility test (vortexing in water); format: physicochemical; conditions: water at 25 °C
# Caco-2 cell monolayers = conditions: ref Lu et al., 2008, Liu et al., 2009, Hu et al., 2014, Bowles et al., 2017, cited from earlier work; for Papp(apical→basolateral) / Papp(basolateral→apical): Caco-2 cell monolayers, from literature; for apparent permeability in Caco-2 cell monolayers: previous results
# [2] = Stability tests in rat plasma (QC samples, HPLC-MS); conditions: n=5
# Excerpt: Accuracy and precision were expressed by relative error (RE) and coefficient of variance (RSD), respectively.
# [3] = Multiple component PK study in rat plasma after p.o. GDDP (HPLC-MS); conditions: for determination in rat plasma at the planned successive PK time points / detection in rat plasma: GDDP 0.8 g/kg p.o.; for determination in rat plasma at the planned successive PK time points: 5, 10, 15, 30, 45, 60, and 120 min, LOQ 1.0–1.4 ng/mL; for detection in rat plasma: at 5, 10, 15, 30, 45, or 60 min, LOD 0.5–0.7 ng/mL
# [4] = tested on: isoprenaline-induced MI in mice; assay: In vivo anti-MI study: isoprenaline-induced myocardial injury (ECG, H&E histology); conditions: for ECG (lead II) findings on the fifth day of the trial: 40 mg/kg p.o., isoprenaline 5 mg/kg on days 4 and 5
# [5] = 24h in auto-sampler vials, spiked 2 ng/mL
# [6] = 24h in auto-sampler vials, spiked 400 ng/mL
# [7] = 24h in auto-sampler vials, spiked 1600 ng/mL
# [8] = Placing plasma for 6h at 4°C, spiked 2 ng/mL
# [9] = Placing plasma for 6h at 4°C, spiked 400 ng/mL
# [10] = Placing plasma for 6h at 4°C, spiked 1600 ng/mL
# [11] = three freeze-thaw cycles, rat plasma, spiked 2 ng/mL
# [12] = three freeze-thaw cycles, rat plasma, spiked 400 ng/mL
# [13] = three freeze-thaw cycles, rat plasma, spiked 1600 ng/mL
# [14] = Sprague-Dawley, rat, plasma, po, 0.4 g/kg
# [15] = Sprague-Dawley, rat, plasma, po, 0.4 g/kg, Cmax, rat plasma, GDDP 0.4 g/kg p.o. (Low dose group), n=3
# [16] = Sprague-Dawley, rat, plasma, po, 0.8 g/kg
# [17] = Sprague-Dawley, rat, plasma, po, 0.8 g/kg, Cmax (high / low plasma drug concentrations), rats, GDDP 0.4 and 0.8 g/kg p.o., classification
# [18] = Sprague-Dawley, rat, plasma, po, 0.8 g/kg, Cmax, rat plasma, GDDP 0.8 g/kg p.o. (High dose group), n=3
# [19] = Sprague-Dawley, rat, plasma, po, 0.8 g/kg, t1/2 β (fast / slow elimination type), rats, GDDP 0.4 and 0.8 g/kg p.o., classification
# [20] = Sprague-Dawley, rat, plasma, po, 0.8 g/kg, t1/2 β, rat plasma, GDDP 0.8 g/kg p.o. (High dose group), n=3
# [21] = rat plasma, GDDP 0.4 g/kg p.o. (Low dose group), n=3
# [22] = rat plasma, GDDP 0.8 g/kg p.o. (High dose group), n=3
# [23] = 40 mg/kg p.o. for 7 days, isoprenaline-induced MI
structure (smiles),measurement,setting,value
"Cc1coc2c1C(=O)C(=O)c1c-2ccc2c(C)cccc12 [TS I, tanshinone I]",solubility in water (in words),[1],insoluble
same,Papp(apical→basolateral),Caco-2 cell monolayers,0.95^d ×10^-6 cm/s
same,Papp(basolateral→apical),Caco-2 cell monolayers,11.27^d ×10^-6 cm/s
same,apparent permeability in Caco-2 cell monolayers,Caco-2 cell monolayers,≥ 10^-6 cm/s
same,Stability: Measured,[2]; [5],2.02 ± 0.32 ng/mL
same,Stability: RE,[2]; [5],0.78%
same,Stability: Measured,[2]; [6],470.56 ± 54.19 ng/mL
same,Stability: RE,[2]; [6],17.64%
same,Stability: Measured,[2]; [7],1562.58 ± 145.90 ng/mL
same,Stability: RE,[2]; [7],-2.34%
same,Stability: Measured,[2]; [8],2.22 ± 0.30 ng/mL
same,Stability: RE,[2]; [8],10.90%
same,Stability: Measured,[2]; [9],469.39 ± 24.45 ng/mL
same,Stability: RE,[2]; [9],17.35%
same,Stability: Measured,[2]; [10],1771.82 ± 333.46 ng/mL
same,Stability: RE,[2]; [10],10.74%
same,Stability: Measured,[2]; [11],2.09 ± 0.20 ng/mL
same,Stability: RE,[2]; [11],4.39%
same,Stability: Measured,[2]; [12],459.00 ± 25.68 ng/mL
same,Stability: RE,[2]; [12],14.75%
same,Stability: Measured,[2]; [13],1482.38 ± 283.06 ng/mL
same,Stability: RE,[2]; [13],-7.32%
same,determination in rat plasma at the planned successive PK time points,[3],could be determined
same,detection in rat plasma,[3],could be detected
same,AUC(0-inf),[3]; [14],125 ± 115 ng·h/mL
same,AUC(0-t),[3]; [14],63 ± 49.5 ng·h/mL
same,MRT inf,[3]; [14],27.3 ± 10.6 h
same,MRT last,[3]; [14],9.93 ± 0.87 h
same,Tmax,[3]; [14],1.25 ± 1.06 h
same,Cmax,[3]; [15],6.1 ± 3.08 ng/mL
same,half-life,"[3]; Sprague-Dawley, rat, plasma, po, 0.4 g/kg, t1/2 β, rat plasma, GDDP 0.4 g/kg p.o. (Low dose group), n=3",16.4 ± 8.87 h
same,AUC(0-inf),[3]; [16],45.1 ± 20.6 ng·h/mL
same,AUC(0-t),[3]; [16],40.1 ± 17.3 ng·h/mL
same,MRT inf,[3]; [16],7.72 ± 2.17 h
same,MRT last,[3]; [16],4.27 ± 1.62 h
same,Tmax,[3]; [16],1.25 ± 0.66 h
same,Cmax,[3]; [17],< 10 ng/mL
same,Cmax,[3]; [18],8.59 ± 3.18 ng/mL
same,half-life,[3]; [19],> 2.6 h
same,half-life,[3]; [20],11.7 ± 4.78 h
same,Cltot,[3]; [21],45.3 ± 41.8 mL/min/kg
same,Cltot,[3]; [22],163 ± 59.8 mL/min/kg
same,Histopathology of heart tissue (H&E),"[4]; 40 mg/kg p.o. for 7 days, isoprenaline-induced MI, 40 mg/kg","myocardial lysis, architecture disorder, and loss of striations in heart tissue; also recorded: myocardial lysis, and architecture disorder, and loss of striations in heart tissue"
same,ECG (lead II) findings on the fifth day of the trial,[4],T waves reversed or decreased
"Cc1coc2c1C(=O)C(=O)c1c-2ccc2c1CCCC2(C)C [TS IIA, tanshinone (TS) IIA]",solubility in water (in words),[1],insoluble
same,Papp(apical→basolateral),Caco-2 cell monolayers,0.98^d ×10^-6 cm/s
same,Papp(basolateral→apical),Caco-2 cell monolayers,11.81^d ×10^-6 cm/s
same,apparent permeability in Caco-2 cell monolayers,Caco-2 cell monolayers,≥ 10^-6 cm/s
same,Stability: Measured,[2]; [5],2.25 ± 0.34 ng/mL
same,Stability: RE,[2]; [5],12.73%
same,Stability: Measured,[2]; [6],464.77 ± 53.87 ng/mL
same,Stability: RE,[2]; [6],16.19%
same,Stability: Measured,[2]; [7],1714.76 ± 174.65 ng/mL
same,Stability: RE,[2]; [7],7.17%
same,Stability: Measured,[2]; [8],2.14 ± 0.11 ng/mL
same,Stability: RE,[2]; [8],6.84%
same,Stability: Measured,[2]; [9],462.76 ± 13.70 ng/mL
same,Stability: RE,[2]; [9],15.69%
same,Stability: Measured,[2]; [10],1933.47 ± 224.22 ng/mL
same,Stability: RE,[2]; [10],20.84%
same,Stability: Measured,[2]; [11],2.10 ± 0.23 ng/mL
same,Stability: RE,[2]; [11],4.94%
same,Stability: Measured,[2]; [12],468.67 ± 61.03 ng/mL
same,Stability: RE,[2]; [12],19.13%
same,Stability: Measured,[2]; [13],1830.46 ± 289.25 ng/mL
same,Stability: RE,[2]; [13],14.40%
same,determination in rat plasma at the planned successive PK time points,[3],could be determined
same,detection in rat plasma,[3],could be detected
same,AUC(0-inf),[3]; [14],71.7 ± 47.4 ng·h/mL
same,AUC(0-t),[3]; [14],23.5 ± 6.4 ng·h/mL
same,MRT last,[3]; [14],5.4 ± 0.41 h
same,Cmax,[3]; [15],4.04 ± 0.72 ng/mL
same,AUC(0-inf),[3]; [16],90.7 ± 52.9 ng·h/mL
same,AUC(0-t),[3]; [16],31.1 ± 1.74 ng·h/mL
same,MRT last,[3]; [16],5.23 ± 0.04 h
same,Tmax,[3]; [16],0.33 ± 0.14 h
same,Cmax,[3]; [17],< 10 ng/mL
same,Cmax,[3]; [18],9.21 ± 0.78 ng/mL
same,half-life,[3]; [19],> 2.6 h
same,half-life,[3]; [20],18.3 ± 13 h
same,Cltot,[3]; [21],382.2 ± 252.5 mL/min/kg
same,MRT0-∞,[3]; [21],27.09 ± 16.67 h
same,Tmax,[3]; [21],0.25 ± 0.00 h
same,t1/2 β,[3]; [21],18.14 ± 12.52 h
same,Cltot,[3]; [22],585.2 ± 304.2 mL/min/kg
same,MRT0-∞,[3]; [22],26.52 ± 19.83 h
same,ST segment elevations on the seventh day of the trial,"[4]; 40 mg/kg p.o. for 7 days, compared with model group, P < 0.05",significantly decreased
same,Histopathology of heart tissue (H&E),[4]; [23],"edema, inflammatory infiltration, and loss of striations in heart tissue"
same,anti-MI effect (overall conclusion),[4]; [23],mild therapeutic effect
same,ECG (lead II) findings on the fifth day of the trial,[4],ST segment elevated
